Like-named read-outs stand apart in the source and are kept apart here.
How the values were obtained:
eight fungal species [1] = experiment: MIC/MFC summary across the eight fungal species of Table 1; assay type: cell-based
Procedure: The antifungal activity of these compounds was evaluated according to CLSI guidelines ([16]).

Candida glabrata [2] = experiment: checkerboard drug interaction (FICI, MICc);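 as to all read-outs here: simplified diagonal checkerboard screen pairing antifungals with FPPS inhibitors, FICI calculated under the Loewe additivity model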; assay type: cell-based; details: C. glabrata; for INH FD (MIC-MICc fold decrease): fold decrease of inhibitor MIC
Procedure: (§1) Drug interactions between antifungals and FPPS inhibitors were investigated using a simplified checkerboard diagonal screening method ([45]). […] FICIs were determined according to the Loewe additivity model ([17]).

[3] = tested on: Cryptococcus deuterogattii; experiment: checkerboard drug interaction (FICI, MICc);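 as to all read-outs here: simplified diagonal checkerboard screen pairing antifungal drugs with FPPS inhibitors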; assay type: cell-based; details: C. deuterogattii; for INH FD (MIC-MICc fold decrease): fold decrease of inhibitor MIC
Procedure: as §1

Trichophyton rubrum [4] = experiment: checkerboard drug interaction (FICI, MICc);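 also: simplified diagonal checkerboard screen pairing azole antifungals with FPPS inhibitors, FICI calculated under the Loewe additivity model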; assay type: cell-based; details: T. rubrum
Procedure: as §1

[5] = tested on: Cryptococcus deuterogattii; experiment: MIC/MFC broth microdilution (CLSI); details: Cryptococcus deuterogattii;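 also: broth microdilution per CLSI M27-Ed4. MFC is the lowest concentration yielding no colonies when MIC broths are subcultured onto SDA plates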
Procedure: (§2) Antifungal susceptibility was determined by broth microdilution according to the CLSI guidelines described in M27-Ed4 ([16]). […] MFC was determined by back-plating drug-treated cultures from MIC broths onto SDA plates. The MFC was defined as the lowest concentration from which no colonies could be cultured.

Aspergillus flavus [6] = experiment: MIC/MFC broth microdilution (CLSI); details: ATCC204304
Procedure: as §2

Candida albicans [7] = experiment: MIC/MFC broth microdilution (CLSI); assay type: cell-based; details: Candida albicans SC5314
Procedure: as §2

HEK-293T cells = experiment: MTT reduction cytotoxicity assay; assay type: cell-based; details: Homo sapiens, HEK-293T, 72 h, HEK-293T, MTT, 72 h; read-out: HEK IC50
Cryptococcus neoformans [8] = experiment: MIC/MFC broth microdilution (CLSI); details: Cryptococcus neoformans;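 also: susceptibility testing followed the CLSI M27-Ed4 broth microdilution document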
Procedure: as §2

Candida glabrata [9] = experiment: MIC/MFC broth microdilution (CLSI); details: Nakaseomyces glabratus, CBS138;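 also: broth microdilution following CLSI M27-Ed4, MFC taken as the lowest drug level yielding no growth once MIC wells were subcultured on SDA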
Procedure: as §2

Saccharomyces cerevisiae [10] = experiment: checkerboard drug interaction (FICI, MICc); assay type: cell-based; design: INH MICc / INH MICc (ITR:INH) / INH MICc (KET:INH) / INH MICc (FLC:INH): unit not given beside the values;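 also: simplified diagonal checkerboard screen pairing antifungals with FPPS inhibitors, FICI calculated under the Loewe additivity model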
Trichophyton rubrum [11] = experiment: MIC/MFC broth microdilution (CLSI); details: Trichophyton rubrum
Procedure: as §2

Saccharomyces cerevisiae [12] = experiment: MIC/MFC broth microdilution (CLSI); assay type: cell-based; details: Saccharomyces cerevisiae S288c
Procedure: as §2

Candida albicans [13] = experiment: checkerboard drug interaction (FICI, MICc);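 as to all read-outs here: antifungal plus FPPS inhibitor combinations on Candida albicans tested by a simplified diagonal checkerboard screen, with FICI calculated under the Loewe additivity model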; assay type: cell-based; details: C. albicans; for INH FD (MIC-MICc fold decrease): fold decrease of inhibitor MIC
Procedure: as §1

Aspergillus fumigatus [14] = experiment: MIC/MFC broth microdilution (CLSI); details: ATCC204305
Procedure: as §2

Aspergillus fumigatus [15] = experiment: checkerboard drug interaction (FICI, MICc); assay type: cell-based;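 also: simplified diagonal checkerboard screen pairing antifungals with FPPS inhibitors against Aspergillus fumigatus, with FICI calculated under the Loewe additivity model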
Procedure: as §1

eight fungal species [16] = experiment: checkerboard interaction with azoles, summary across the eight species; assay type: cell-based; details: geometric mean MIC in combination with azoles
Source text: Synergy between lipophilic FPPS inhibitors and azole antifungals was investigated by determining the fractional inhibitory concentration index (FICI) (Fig. 2; Table S1 Fig. S1) ([17]). […]. Derivatives PLA9 and 11, and PDA9, 11, and 12 antagonized azoles in C. albicans, C. neoformans, and C. deuterogattii, yet were largely synergistic in C. glabrata and S. cerevisiae. […].

Cryptococcus neoformans [17] = experiment: checkerboard drug interaction (FICI, MICc);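 as to all read-outs here: antifungal plus FPPS inhibitor pairs tested against Cryptococcus neoformans by simplified diagonal checkerboard screening, FICI computed under the Loewe additivity model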; assay type: cell-based; details: C. neoformans; for INH FD (MIC-MICc fold decrease): fold decrease of inhibitor MIC
Procedure: as §1

Aspergillus flavus [18] = experiment: checkerboard drug interaction (FICI, MICc);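 also: simplified diagonal checkerboard screen pairing azole antifungals with FPPS inhibitors, FICI calculated under the Loewe additivity model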; assay type: cell-based; design: INH MICc (KET:INH) / INH MICc (FLC:INH): unit not given beside the values; details: A. flavus
[19] = FLC:INH combination, MIC of the inhibitor in combination with FLC
[20] = FLC:INH combination, fold decrease of FLC MIC
[21] = ITR:INH combination, MIC of the inhibitor in combination with ITR
[22] = ITR:INH combination, fold decrease of ITR MIC
[23] = KET:INH combination, MIC of the inhibitor in combination with KET
[24] = KET:INH combination, fold decrease of KET MIC
[25] = Fractional Inhibitory Concentration Index, fluconazole + inhibitor
[26] = Fractional Inhibitory Concentration Index, itraconazole + inhibitor
[27] = Fractional Inhibitory Concentration Index, ketoconazole + inhibitor
[28] = MIC of the inhibitor in combination with fluconazole
[29] = MIC of the inhibitor in combination with itraconazole
[30] = MIC of the inhibitor in combination with ketoconazole
[31] = MIC-MICc fold decrease of fluconazole, negative = increase
[32] = MIC-MICc fold decrease of itraconazole, negative = increase
[33] = MIC-MICc fold decrease of ketoconazole, negative = increase
[34] = MIC-MICc fold decrease of the inhibitor, with fluconazole
[35] = MIC-MICc fold decrease of the inhibitor, with itraconazole
[36] = MIC-MICc fold decrease of the inhibitor, with ketoconazole

## CCCCCCCCCCCN1CCC[C@H]1C(=O)N[C@H](CC(=O)O)C(=O)O [PDA11]
Eight fungal species [1]; across eight species, read-out: Geometric mean MFC
  MFC: > 128 µg/mL
Eight fungal species [1]; geometric mean across eight species, read-out: GM fungal MIC
  MIC: > 128 µg/mL
Eight fungal species [1]; read-out: Geometric mean MIC
  MIC: > 128 µg/mL
Candida glabrata [2]; FLC:INH combination
  FICI: 0.63
  INH FD (MIC-MICc fold decrease): 32
Candida glabrata [2]; [19]
  INH MICc: 8
Candida glabrata [2]; [20]
  FLC FD (MIC-MICc fold decrease): 2
Candida glabrata [2]; ITR:INH combination
  FICI: 0.28
  INH FD (MIC-MICc fold decrease): 128
Candida glabrata [2]; [21]
  INH MICc: 2
Candida glabrata [2]; [22]
  ITR FD (MIC-MICc fold decrease): 4
Candida glabrata [2]; KET:INH combination
  FICI: 0.28
  INH FD (MIC-MICc fold decrease): 128
Candida glabrata [2]; [23]
  INH MICc: 2
Candida glabrata [2]; [24]
  KET FD (MIC-MICc fold decrease): 4
[3]; FLC:INH combination
  FICI: ≥4
  INH FD (MIC-MICc fold decrease): 1
[3]; [19]
  INH MICc: 256
[3]; [20]
  FLC FD (MIC-MICc fold decrease): -4
[3]; ITR:INH combination
  FICI: ≥4
  INH FD (MIC-MICc fold decrease): 1
[3]; [21]
  INH MICc: 256
[3]; [22]
  ITR FD (MIC-MICc fold decrease): < -4
[3]; KET:INH combination
  FICI: 1
  INH FD (MIC-MICc fold decrease): 2
[3]; [23]
  INH MICc: 128
[3]; [24]
  KET FD (MIC-MICc fold decrease): 2
Trichophyton rubrum [4]; [25]
  FICI (FLC:INH): 3
Trichophyton rubrum [4]; [26]
  FICI (ITR:INH): 2
Trichophyton rubrum [4]; [27]
  FICI (KET:INH): 3
Trichophyton rubrum [4]; [28]
  INH MICc (FLC:INH): 256
Trichophyton rubrum [4]; [29]
  INH MICc (ITR:INH): 256
Trichophyton rubrum [4]; [30]
  INH MICc (KET:INH): 256
Trichophyton rubrum [4]; [31]
  FLC FD (FLC:INH): -2
Trichophyton rubrum [4]; [32]
  ITR FD (ITR:INH): 1
Trichophyton rubrum [4]; [33]
  KET FD (KET:INH): -2
Trichophyton rubrum [4]; [34]
  INH FD (FLC:INH): 1
Trichophyton rubrum [4]; [35]
  INH FD (ITR:INH): 1
Trichophyton rubrum [4]; [36]
  INH FD (KET:INH): 1
[5]
  MFC: > 128 µg/mL
  MIC: > 128 µg/mL
Aspergillus flavus [6]
  MFC: > 128 µg/mL
  MIC: > 128 µg/mL
Candida albicans [7]
  MFC: > 128 µg/mL
  MIC: > 128 µg/mL
HEK-293T cells
  IC50: > 256 µg/mL
Cryptococcus neoformans [8]
  MFC: > 128 µg/mL
  MIC: > 128 µg/mL
Candida glabrata [9]
  MFC: > 128 µg/mL
  MIC: > 128 µg/mL
Saccharomyces cerevisiae [10]; [25]
  FICI (FLC:INH): 0.5
Saccharomyces cerevisiae [10]; [26]
  FICI (ITR:INH): 1.5
Saccharomyces cerevisiae [10]; [27]
  FICI (KET:INH): 0.5
Saccharomyces cerevisiae [10]; [28]
  INH MICc (FLC:INH): 64
Saccharomyces cerevisiae [10]; [29]
  INH MICc (ITR:INH): 128
Saccharomyces cerevisiae [10]; [30]
  INH MICc (KET:INH): 64
Saccharomyces cerevisiae [10]; [31]
  FLC FD (FLC:INH): 4
Saccharomyces cerevisiae [10]; [32]
  ITR FD (ITR:INH): 1
Saccharomyces cerevisiae [10]; [33]
  KET FD (KET:INH): 4
Saccharomyces cerevisiae [10]; [34]
  INH FD (FLC:INH): 4
Saccharomyces cerevisiae [10]; [35]
  INH FD (ITR:INH): 2
Saccharomyces cerevisiae [10]; [36]
  INH FD (KET:INH): 4
Trichophyton rubrum [11]
  MFC: > 128 µg/mL
  MIC: > 128 µg/mL
Saccharomyces cerevisiae [12]
  MFC: > 128 µg/mL
  MIC: > 128 µg/mL
Candida albicans [13]; FLC:INH combination
  FICI: ≥4
  INH FD (MIC-MICc fold decrease): 2
Candida albicans [13]; [19]
  INH MICc: 128
Candida albicans [13]; [20]
  FLC FD (MIC-MICc fold decrease): < -4
Candida albicans [13]; ITR:INH combination
  FICI: ≥4
  INH FD (MIC-MICc fold decrease): 2
Candida albicans [13]; [21]
  INH MICc: 128
Candida albicans [13]; [22]
  ITR FD (MIC-MICc fold decrease): < -4
Candida albicans [13]; KET:INH combination
  FICI: ≥4
  INH FD (MIC-MICc fold decrease): 4
Candida albicans [13]; [23]
  INH MICc: 64
Candida albicans [13]; [24]
  KET FD (MIC-MICc fold decrease): < -4
Aspergillus fumigatus [14]
  MFC: > 128 µg/mL
  MIC: > 128 µg/mL
Aspergillus fumigatus [15]; [25]
  FICI (FLC:INH): 2
Aspergillus fumigatus [15]; [26]
  FICI (ITR:INH): 0.51
Aspergillus fumigatus [15]; [27]
  FICI (KET:INH): 1.5
Aspergillus fumigatus [15]; [28]
  INH MICc (FLC:INH): 256
Aspergillus fumigatus [15]; [29]
  INH MICc (ITR:INH): 2
Aspergillus fumigatus [15]; [30]
  INH MICc (KET:INH): 128
Aspergillus fumigatus [15]; [31]
  FLC FD (FLC:INH): 1
Aspergillus fumigatus [15]; [32]
  ITR FD (ITR:INH): 2
Aspergillus fumigatus [15]; [33]
  KET FD (KET:INH): 1
Aspergillus fumigatus [15]; [34]
  INH FD (FLC:INH): 1
Aspergillus fumigatus [15]; [35]
  INH FD (ITR:INH): 128
Aspergillus fumigatus [15]; [36]
  INH FD (KET:INH): 2
Eight fungal species [16]
  GM fungal MICc: 78.3
Cryptococcus neoformans [17]; FLC:INH combination
  FICI: ≥4
  INH FD (MIC-MICc fold decrease): 1
Cryptococcus neoformans [17]; [19]
  INH MICc: 256
Cryptococcus neoformans [17]; [20]
  FLC FD (MIC-MICc fold decrease): < -4
Cryptococcus neoformans [17]; ITR:INH combination
  FICI: ≥4
  INH FD (MIC-MICc fold decrease): 1
Cryptococcus neoformans [17]; [21]
  INH MICc: 256
Cryptococcus neoformans [17]; [22]
  ITR FD (MIC-MICc fold decrease): < -4
Cryptococcus neoformans [17]; KET:INH combination
  FICI: ≥4
  INH FD (MIC-MICc fold decrease): 2
Cryptococcus neoformans [17]; [23]
  INH MICc: 128
Cryptococcus neoformans [17]; [24]
  KET FD (MIC-MICc fold decrease): -4
Aspergillus flavus [18]; [25]
  FICI (FLC:INH): 1
Aspergillus flavus [18]; [26]
  FICI (ITR:INH): 2
Aspergillus flavus [18]; [27]
  FICI (KET:INH): 0.75
Aspergillus flavus [18]; [28]
  INH MICc (FLC:INH): 128
Aspergillus flavus [18]; [29]
  INH MICc (ITR:INH): 256
Aspergillus flavus [18]; [30]
  INH MICc (KET:INH): 64
Aspergillus flavus [18]; [31]
  FLC FD (FLC:INH): 2
Aspergillus flavus [18]; [32]
  ITR FD (ITR:INH): 1
Aspergillus flavus [18]; [33]
  KET FD (KET:INH): 2
Aspergillus flavus [18]; [34]
  INH FD (FLC:INH): 2
Aspergillus flavus [18]; [35]
  INH FD (ITR:INH): 1
Aspergillus flavus [18]; [36]
  INH FD (KET:INH): 4

Source: publication PMC12892976, “Alkylation-based optimization of antifungal FPPS inhibitors yields a potent, broad-spectrum lipophilic zoledronate derivative” (mBio, 2025)
